Data on 16 molecules can be found in patent publication US5693830A, “Process for preparing the spiropyrone compounds” (Tokuyama Corporation, priority 1994, dated 1997).

A short description of the data set: Photochromic properties of spiropyran compounds in methyl polymethacrylate film. Format: physicochemical. The following applies: for ε (60 sec.) -ε (0 sec.): absorbancy at max. absorption wavelength, irradiated 60 seconds minus not irradiated; for ε (60 sec.) -ε (0 sec.) / Developed color tone: 25° C.; for λ MAX (max. absorption wavelength): color-developing film, spectrophotometer 220A; for Developed color tone: film 1.0×10^-4 mol/g, 0.1 mm thick, mercury lamp, 10 cm, 60 seconds; for t1/2 (half-value period): time until absorbancy decreases to one-half {ε(60 sec)-ε(0 sec)} after irradiation for 60 seconds. As for the experimental part: The concentration of the above compound contained in the film was adjusted to be 1.0×10^-4 mol/g and the thickness was adjusted to be 0.1 mm. The photochromic film was exposed to the light of a mercury lamp SHL-100 produced by Toshiba Co. at a temperature of 25° C.+1° C. from a distance of 10 cm for 60 seconds so as to develop a color, in order to measure its photochromic properties. The photochromic properties were expressed as described below.
Max. absorption wavelength (λmax)
λmax of the color-developing film was found by using a spectrophotometer 220A manufactured by Hitachi, Ltd.
Absorbancy of the film at a maximum absorption wavelength after irradiated with light for 60 seconds under the above-mentioned conditions.
Absorbancy of the film that is not irradiated with light at a maximum absorption wave of when it is irradiated with light.
Time needed until the absorbancy of the film decreases to one-half {ε(60 sec)-ε(0 sec)} after irradiated with light for 60 seconds.

Regarding “3',4'-Dimethylspiro(2-bicyclo[3,3,1]nonene-9,2'-(2H)fluoro(2,3-b)pyran) [compound 38]”, the “ε (60 sec.) -ε (0 sec.)” value is 0.6, the “λ MAX (max. absorption wavelength)” value is reported as 430 nm, the Developed color tone entry is reported as “yellow” and the “t1/2 (half-value period)” value is 10 s.
Take `ClC12CC=CC(CCC1)C21C=C(Cc2ccccc2)c2c(cnc3ccccc23)O1` (stereo not shown) [compound 28, 5-Chloro-4'-benzylspiro(2-bicyclo(3,3,1)nonene-9,2'-(2H)quino(3,4-b)pyran)]: the “ε (60 sec.) -ε (0 sec.)” value is recorded as 0.9, the “λ MAX (max. absorption wavelength)” value was determined as 402 nm, the Developed color tone result is “yellow” and the “t1/2 (half-value period)” value was 16 s.
The matching figures for `CCCCC1=CC2(Oc3c(C#N)cccc31)C1C=CCC2CCC1` (stereo not shown) [compound 29, 8'-Cyano-4'-n-butylspiro(2-bicyclo(3,3,1)nonene-9,2'-(2H)chromene)]: 0.5, 494 nm, “orange” and 11 s.
The matching figures for `CC1(C)CCC2(C)CC=CC1C21C=C(c2ccccc2)c2cccnc2O1` (stereo not shown) [compound 30]: 0.6, 480 nm, “orange” and 26 s.
The matching figures for `CCCC12CC=CC(CCC1)C21C=C(CC)c2ccc3c(-c4ccccc4)cccc3c2O1` (stereo not shown) [compound 31, 7'-Phenyl-4'-ethyl-5-n-propylspiro(2-bicyclo[3,3,1]nonene-9,2'-(2H)benzo(h)chromene)]: 0.7, 460 nm, “yellow” and 90 s.
In the case of `CCCCC1=CC2(Oc3c1ccc1ccccc31)C1C=CCC2CCC1` (stereo not shown) [compound 32, 4'-n-Butylspiro(2-bicyclo[3,3,1]nonene-9,2'-(2H)benzo(h)chromene)], the “ε (60 sec.) -ε (0 sec.)” value stood at 0.8, the “λ MAX (max. absorption wavelength)” value is 445 nm, the Developed color tone result was “yellow” and the “t1/2 (half-value period)” value stood at 110 s.
The matching figures for `CCCC1=Cc2c(ccc3ccccc23)OC12C1C=CCC2CCC1` (stereo not shown) [compound 33, 3'-n-Propylspiro(2-bicyclo[3,3,1]nonene-9,2'-(2H)benzo(f)chromene)]: 0.6, 410 nm, “yellow” and 18 s.
For `C1=CC2CCCC(C1)C21Oc2ccc3ccccc3c2C=C1CCc1ccccc1` (stereo not shown) [compound 34, 3'-Benzylmethylspiro(2-bicyclo[3,3,1]nonene-9,2'-(2H)benzo(f)chromene)], the “ε (60 sec.) -ε (0 sec.)” value is reported as 0.7, the “λ MAX (max. absorption wavelength)” value was determined as 406 nm, the Developed color tone result is reported as “yellow” and the “t1/2 (half-value period)” value was determined as 26 s.
As to `CC(C)C1=Cc2c(ccc3ccccc23)OC12C1C=CCC2CCC1` (stereo not shown) [compound 35, 3'-i-Propylspiro(2-bicyclo[3,3,1]nonene-9,2'-(2H)benzo(f)chromene)], the “ε (60 sec.) -ε (0 sec.)” value came to 0.6, the “λ MAX (max. absorption wavelength)” value is reported as 410 nm, the Developed color tone result was “yellow” and the “t1/2 (half-value period)” value is 18 s.
The matching figures for `COc1ccc(C2=Cc3c(ccc4ccccc34)OC23C2C=CCC3CCC2)cc1` (stereo not shown) [compound 36, 3'-p-methoxyphenylspiro(2-bicyclo[3,3,1]nonene-9,2'-(2H)benzo(f)chromene)]: 0.9, 420 nm, “yellow” and 25 s.
The matching figures for `CCC1=Cc2c(cnc3ccccc23)OC12C1C=CCC2CCC1` (stereo not shown) [compound 37, 3'-Ethylspiro(2-bicyclo[3,3,1]nonene-9,2'-(2H)quino(3,4-b)pyran)]: 0.5, 415 nm, “yellow” and 22 s.
The matching figures for `CCC1=C(Cc2ccccc2)C2(Oc3scc(Br)c31)C1C=CCC2CCC1` (stereo not shown) [compound 39, 4'-Ethyl-3'-benzyl-5'-bromospiro(2-bicyclo[3,3,1]nonene-9,2'-(2H)thieno(2,3-b)pyran)]: 0.6, 465 nm, “orange” and 12 s.
Regarding `CCCC1=C(Cc2ccccc2)c2c(ccc3ccccc23)OC12C1C=CCC2CCC1` (stereo not shown) [compound 40, 3'-n-Propyl-4'-benzylspiro(2-bicyclo[3,3,1]nonene-9,2'-(2H)benzo(f)chromene)], the “ε (60 sec.) -ε (0 sec.)” value was determined as 0.8, the “λ MAX (max. absorption wavelength)” value was 420 nm, the Developed color tone result was “yellow” and the “t1/2 (half-value period)” value stood at 14 s.
The matching figures for `C1=CC2CCCC(C1)C21Oc2ccc3ccccc3c2C(c2ccccc2)=C1CCc1ccccc1` (stereo not shown) [compound 41, 3'-Benzylmethyl-4'-phenylspiro(2-bicyclo[3,3,1]nonene-9,2'-(2H)benzo(f)chromene)]: 0.7, 440 nm, “yellow” and 17 s.
As for `CCC1=C(CC)C2(Oc3c1ccc1ccccc31)C1C=CCC2CCC1` (stereo not shown) [compound 42, 3',4'-Diethylspiro(2-bicyclo[3,3,1]nonene-9,2'-(2H)benzo(h)chromene)], the “ε (60 sec.) -ε (0 sec.)” value stood at 1.0, the “λ MAX (max. absorption wavelength)” value amounted to 450 nm, the Developed color tone result is reported as “yellow” and the “t1/2 (half-value period)” value worked out at 28 s.
“Spiro(2-bicyclo(3,3,1)nonene-9,2'-(2H)methylpyrrolo(2,3-b)pyran) [compound 27]”: the “ε (60 sec.) -ε (0 sec.)” value was 1.0, the “λ MAX (max. absorption wavelength)” value is listed as 470 nm, the Developed color tone entry is “orange” and the “t1/2 (half-value period)” value came to 48 s.
